The source of these data is patent US10004755B2 (priority 2014, dated 2018).

For series [1] the following is noted: mouse, in vivo.
For series [2] the following is noted: mouse, in vivo. This is another data set of the same source.

SMILES strings stand for the structures.

`CCCCNc1ncc2c(-c3ccc(CN4CCN(C)CC4)cc3)cn([C@H]3CC[C@H](O)CC3)c2n1` [UNC2025A]: the oral bioavailability result in series [1] is listed as “orally bioavailable”. Moreover, in series [2], the “MTD (predicted dose in chow)” value is 120 mg/kg.
